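96-well plates; 48 h exposure; 5 concentrations. Endpoints by linear interpolation between flanking doses. Not reached: highest tested concentration assigned. Definition used: TGI = concentration required for complete inhibition of growth.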 Where a SMILES comes first, the peptide text is derived from it. The star is where a group is joined. Boc = CC(C)(C)OC(=O)*; OSu = O=C1CCC(=O)N1O*
Legend:
Assay in all cases: inhibition of tumour cell growth, NCI panel, 48 h
NCI-H460 lung = system: NCI-H460 lung
T-47D breast = system: T-47D breast
UACC-62 melanoma = system: UACC-62 melanoma
SK-MEL-5 melanoma = system: SK-MEL-5 melanoma
RXF 393 renal = system: RXF 393 renal
SW-620 colon = system: SW-620 colon
SF-539 CNS = system: SF-539 CNS

SMILES | TGI (NCI-H460 lung) | TGI (T-47D breast) | TGI (UACC-62 melanoma) | TGI (SK-MEL-5 melanoma) | TGI (RXF 393 renal) | TGI (SW-620 colon) | TGI (SF-539 CNS)
S=C(NC1=NCC(CN2CCN(c3ccccc3)CC2)O1)Nc1ccccc1 (stereo not given) | > 100 µM | > 100 µM | > 100 µM | > 100 µM | > 100 µM | > 100 µM | > 100 µM
COC(=O)c1c(O)ccc2c1c1c(n2Cc2ccccc2Cl)C(=O)c2ccccc2C1=O | 23.5 µM | 27.4 µM | 30.2 µM | 26.4 µM | 41.3 µM |  | 30 µM
C[C@]12CC[C@H]3[C@@H](CC=C4C[C@@H](N5CCCC5)CC[C@@]43C)[C@@H]1C[C@H](N1CCOCC1)[C@@H]2O | > 100 µM | > 100 µM | > 100 µM | > 100 µM | > 100 µM | > 100 µM | > 100 µM
CC(C)/C(Cl)=N\OC(=O)Nc1ccccc1F | 36.2 µM | 49.5 µM | 36.6 µM | 27.9 µM | 9.97 µM | 3.59 µM | 32.1 µM
O=C(/C=C/c1ccc(O)cc1)c1ccc2c(c1)OCO2 | 77.2 µM | 75.3 µM | 47.6 µM | 29.4 µM | 38.7 µM | 42.9 µM | 26.8 µM
O=C1NC(SSC2=NNC3(C(=O)N2)c2ccccc2-c2ccccc23)=NNC12c1ccccc1-c1ccccc12 | > 10 µM | > 10 µM | > 10 µM | > 10 µM | > 10 µM | > 10 µM | > 10 µM
COC(=O)C1C/C(=C/N(C)C)C(=S)N1 (stereo not given) | 35.4 µM | > 100 µM | > 100 µM | > 100 µM | > 100 µM | > 100 µM | 
CC[C@H](O)[C@H](C)C=C1SCCCS1 |  |  | > 100 µM | > 100 µM | > 100 µM | > 100 µM | 
CC(=O)N=C1N(/C=C2\C(=O)Oc3ccccc3C2=O)C(=O)/C(=C/c2ccc(OC(C)=O)cc2)N1C | > 100 µM | > 100 µM | > 100 µM | > 100 µM | > 100 µM | > 100 µM | > 100 µM
COc1ccc2c(CCN)c(C(=O)O)[nH]c2c1 | > 100 µM | > 100 µM | > 100 µM | > 100 µM | > 100 µM | > 100 µM | > 100 µM
Cc1cnc2sn(-c3ccc(Oc4ccccc4)cc3)c(=O)c2c1 | 23.1 µM | 37.7 µM | 30.7 µM | 39.6 µM |  | 70.7 µM | 31.7 µM
CC(=O)OCCOCn1c2c(c(=S)[nH]c1=O)CCC2 |  |  |  | > 100 µM | > 100 µM | > 100 µM | > 100 µM
C[n+]1c(-c2ccc(/C=N/NC(=N)N/N=C/c3ccc(-c4cn5cc(Cl)ccc5[n+]4C)cc3)cc2)cn2cc(Cl)ccc21 | > 100 µM | > 100 µM |  | > 100 µM |  | > 100 µM | > 100 µM
COc1cc(C2c3cc4c(cc3[C@@H](Nc3ccccc3)C3COC[C@H]23)OCO4)cc(OC)c1O (stereo not given in full) | 5 µM | > 100 µM |  | 68.9 µM |  | > 100 µM | 4.35 µM
O=C(c1ccccc1)N1CCN(C(=S)N(C(=O)c2ccccc2)c2ccccc2)C1=S | 44.7 µM | > 31.9 µM | 11.4 µM | 26.5 µM |  | > 43.5 µM | 7.07 µM
[N-]=[N+]=C1N=CN=C1c1ncn[nH]1 |  | 83 µM | 56.3 µM | > 100 µM | > 100 µM | > 100 µM | 52.2 µM
CN(CCn1cnc2c1c(=O)n(C)c(=O)n2C)C1CCCCC1 | > 100 µM | > 100 µM | > 100 µM | > 100 µM | > 100 µM | > 100 µM | > 100 µM
CCCCC(=O)NS(=NC(=O)c1ccccc1)C(Cl)(Cl)Cl (stereo not given) | > 100 µM | > 100 µM | > 100 µM | > 100 µM | > 100 µM | > 100 µM | > 100 µM
COC(=O)CCC(=O)NC1=C(Nc2ccc(OC)cc2)C(=O)c2ccccc2C1=O | 21.1 µM | 40.4 µM | 7.67 µM | 3.57 µM | 67 µM | 29.7 µM | 27.9 µM
CCCSc1ccc2[nH]c(N3C(=O)/C(=C/c4ccco4)N=C3c3ccccc3)cc2c1 | > 50 µM | > 50 µM | > 50 µM | 30.3 µM | > 50 µM | > 50 µM | 25 µM
CC(NC(=O)C(NC(=O)OC(C)(C)C)C(C)C)C(=O)NCC(=O)ON1C(=O)CCC1=O (stereo not drawn) (Boc-Val-Ala-Gly-OSu; configuration not given here) | > 100 µM | > 100 µM | > 100 µM | > 100 µM | > 100 µM | > 100 µM | > 100 µM
COC(=O)CCC(=O)NC1=C(NCc2ccccc2)C(=O)c2ccccc2C1=O | > 100 µM | > 100 µM | 33.1 µM | 24.9 µM | > 100 µM | 59.2 µM | 43.8 µM
NC(N)=N/N=C/c1nc2n(c1[N+](=O)[O-])CCS2 | 48.4 µM | 67.4 µM | > 100 µM | 34.4 µM | 65.3 µM | > 100 µM | > 100 µM
CN(C)CCNC(=O)c1cccc2c(NCCN(C)C)c3ccccc3nc12 | 3.91 µM | > 83.6 µM | 9.19 µM | 13.6 µM | 14.2 µM | > 23.4 µM | 11.3 µM
CCSc1sc(=Nc2ccc(N=c3sc(C)c(SC)s3)cc2)sc1-c1ccc(C)cc1 | > 100 µM | > 100 µM | > 100 µM | > 100 µM | > 100 µM | > 100 µM | > 100 µM
Cc1[nH]c2c(c1C)S(=O)(=O)c1cc3ccccc3nc1N2 | > 100 µM | > 100 µM | > 100 µM | 28.8 µM | 66.8 µM | > 100 µM | 25.2 µM
COc1ccc2nc3c([N+](=O)[O-])ccc4c3c(c2c1)NCCN4CCO | 1.18 µM | 3.68 µM | 1.07 µM | 1.15 µM | 1.78 µM | 3.1 µM | 1.56 µM
COC(=O)NCCc1[nH]nc2c1C(=O)C=C(N1CCOCC1)C2=O | > 100 µM | > 100 µM | > 100 µM | > 100 µM | > 100 µM | > 100 µM | > 100 µM
CCOC(=O)c1cc(-c2cc(OC)c(OC)c([N+](=O)[O-])c2)c([N+](=O)[O-])n1C | > 10 µM |  | > 10 µM |  | > 10 µM |  | > 10 µM
